According to US10344025B2, “GLS1 inhibitors for treating disease” (Board of Regents, The University of Texas System, priority 2014, dated 2019):
Where “and” joins values, the source holds several entries; their conditions need not be identical. Identical values can stand only once.

Experiments:
[1] = molecular target: purified recombinant human GAC (GLS1) (Homo sapiens (Human), UniProt O94925); assay: GLS1 Enzymatic Activity Assay (dual-coupled enzymatic assay, resorufin/Amplex UltraRed readout); type: biochemical;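 further: glutamate from GAC coupled via glutamate oxidase and peroxidase to resorufin, read as fluorescence (ex 530, em 590 nm) kinetically or at 20 min, four-parameter logistic IC50 fit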
A549 cells = assay: Proliferation Assay (A549 viability, Cell Titer Fluor, 72 hours); type: cell-based; settings: Homo sapiens, A549, 72 h
In short: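 A549 cells seeded at 1000 cells/well, rested 24 h, then exposed to compound in 0.5% DMSO for 72 h at 37 °C. Viability read by Cell Titer Fluor fluorescence; IC50 from four-parameter logistic fit.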

Sequence of purified recombinant human GAC (GLS1) (O94925 other isoform, or with tags, fused parts or gaps): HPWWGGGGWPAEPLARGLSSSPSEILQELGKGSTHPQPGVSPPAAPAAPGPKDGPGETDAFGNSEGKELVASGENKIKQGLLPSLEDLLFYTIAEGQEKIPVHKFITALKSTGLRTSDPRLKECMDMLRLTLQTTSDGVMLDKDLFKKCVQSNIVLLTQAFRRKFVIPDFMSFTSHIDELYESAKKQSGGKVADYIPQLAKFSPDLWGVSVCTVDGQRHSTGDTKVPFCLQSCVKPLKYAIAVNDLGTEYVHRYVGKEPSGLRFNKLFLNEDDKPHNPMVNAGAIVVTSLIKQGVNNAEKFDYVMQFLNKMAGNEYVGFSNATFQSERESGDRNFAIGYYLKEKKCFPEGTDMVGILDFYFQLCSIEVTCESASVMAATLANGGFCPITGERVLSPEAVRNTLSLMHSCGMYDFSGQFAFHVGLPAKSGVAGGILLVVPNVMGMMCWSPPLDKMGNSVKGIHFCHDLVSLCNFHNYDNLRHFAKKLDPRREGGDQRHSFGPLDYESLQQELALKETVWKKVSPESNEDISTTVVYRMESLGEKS

SMILES	IC50 [1]	EC50 (A549 cells)
O=C(Cc1cccnc1)Nc1ccc(CCCCn2cc(C(=O)NCc3cc(OC(F)(F)F)ccc3F)nn2)nn1 [Example 589, N-(2-fluoro-5-(trifluoromethoxy)benzyl)-1-(4-(6-(2-(pyridin-3-yl)acetamido)pyridazin-3-yl)butyl)-1H-1,2,3-triazole-4-carboxamide]	< 0.1 µM	< 0.1 µM
Cc1ccc(CNC(=O)c2cn(CCCCc3nnc(C(=O)NCC4CC4)s3)nn2)cn1 [Example 63, N-(cyclopropylmethyl)-5-[4-(4-{[(6-methylpyridin-3-yl)methyl]carbamoyl}-1H-1,2,3-triazol-1-yl)butyl]-1,3,4-thiadiazole-2-carboxamide]	0.1 to 0.5 µM	0.5 to 5 µM
O=C(Cc1cccc(OC(F)(F)F)c1)Nc1nnc(CCC(F)Cn2cc(C(=O)NCC(F)(F)F)nn2)s1 (centres unmarked) [Example 536, 1-[2-fluoro-4-(5-{2-[3-(trifluoromethoxy)phenyl]acetamido}-1,3,4-thiadiazol-2-yl)butyl]-N-(2,2,2-trifluoroethyl)-1H-1,2,3-triazole-4-carboxamide]	< 0.1 µM	0.1 to 0.5 µM
Cc1ccc(CC(=O)Nc2cn(CCCCn3cc(C(=O)NCc4cc(OC(F)(F)F)ccc4F)nn3)nn2)cn1 [Example 335, N-{[2-fluoro-5-(trifluoromethoxy)phenyl]methyl}-1-(4-{4-[2-(6-methylpyridin-3-yl)acetamido]-1H-1,2,3-triazol-1-yl}butyl)-1H-1,2,3-triazole-4-carboxamide]	< 0.1 µM	< 0.1 µM
CNC(=O)c1cn(CC(F)CCc2nnc(NC(=O)Cc3cc(C(F)(F)F)ccn3)s2)nn1 (centres unmarked) [Example 226, 1-(2-fluoro-4-(5-(2-(4-(trifluoromethyl)pyridin-2-yl)acetamido)-1,3,4-thiadiazol-2-yl)butyl)-N-methyl-1H-1,2,3-triazole-4-carboxamide]	< 0.1 µM	< 0.1 µM
CC(C)(O)CNC(=O)c1nnc(CCCCc2ccc(NC(=O)Cc3cccc(OC(F)(F)F)c3)nn2)s1 [Example 34, N-(2-hydroxy-2-methylpropyl)-5-[4-(6-{2-[3-(trifluoromethoxy)phenyl]acetamido}pyridazin-3-yl)butyl]-1,3,4-thiadiazole-2-carboxamide]	< 0.1 µM and 0.1 to 0.5 µM	0.1 to 0.5 µM
O=C(Cc1cccc(OC(F)(F)F)c1)Nc1nnc(CCCCn2cc(C(=O)NCc3cccc(OC(F)(F)F)c3)nn2)s1 [Example 20, 1-[4-(5-{2-[3-(trifluoromethoxy)phenyl]acetamido}-1,3,4-thiadiazol-2-yl)butyl}-N-{[3-(trifluoromethoxy)phenyl]methyl}-1H-1,2,3-triazole-4-carboxamide]	< 0.1 µM	< 0.1 µM
CNC(=O)c1cn(CC(F)CCc2ccc(NC(=O)Cc3cc(C4CCOCC4)ccn3)nn2)nn1 (centres unmarked) [Example 253, 1-(2-fluoro-4-(6-(2-(4-(tetrahydro-2H-pyran-4-yl)pyridin-2-yl)acetamido)pyridazin-3-yl)butyl)-N-methyl-1H-1,2,3-triazole-4-carboxamide]	< 0.1 µM	< 0.1 µM
Cn1cnc(CC(=O)Nc2nnc(CCC(F)Cn3cc(C(=O)NCc4cc(OC(F)(F)F)ccc4F)nn3)s2)c1 (centres unmarked) [Example 576, 1-(2-fluoro-4-(5-(2-(1-methyl-1H-imidazol-4-yl)acetamido)-1,3,4-thiadiazol-2-yl)butyl)-N-(2-fluoro-5-(trifluoromethoxy)benzyl)-1H-1,2,3-triazole-4-carboxamide]	< 0.1 µM	< 0.1 µM
Cc1ccc(CNC(=O)c2nnc(CCCCn3cc(C(=O)NCc4cccc(OC(F)(F)F)c4)nn3)s2)cn1 [Example 60, N-[(6-methylpyridin-3-yl)methyl]-5-{4-[4-({[3-(trifluoromethoxy)phenyl]methyl}carbamoyl)-1H-1,2,3-triazol-1-yl]butyl}-1,3,4-thiadiazole-2-carboxamide]	< 0.1 µM	< 0.1 µM
O=C(Cc1cc(Cl)ccc1F)Nc1cn(CCCCn2cc(C(=O)NCc3cccc(OC(F)(F)F)c3)nn2)nn1 [Example 385, 1-(4-{4-[2-(5-chloro-2-fluorophenyl)acetamido]-1H-1,2,3-triazol-1-yl}butyl)-N-{[3-(trifluoromethoxy)phenyl]methyl}-1H-1,2,3-triazole-4-carboxamide]	< 0.1 µM	< 0.1 µM
Cc1ccc(CNC(=O)c2cn(CCC(F)Cn3cc(C(=O)NCc4cccc(OC(F)(F)F)c4)nn3)nn2)cn1 (centres unmarked) [Example 434, 1-[2-fluoro-4-(4-{[(6-methylpyridin-3-yl)methyl]carbamoyl}-1H-1,2,3-triazol-1-yl)butyl]-N-{[3-(trifluoromethoxy)phenyl]methyl}-1H-1,2,3-triazole-4-carboxamide]	< 0.1 µM	< 0.1 µM
C[C@@H](NC(=O)c1cn(CCC(F)Cn2cc(C(=O)NCc3cc(C(F)(F)F)ccn3)nn2)nn1)c1ccccc1 (stereo partly drawn) [Example 131, 1-[2-fluoro-4-(4-{[(1R)-1-phenylethyl]carbamoyl}-1H-1,2,3-triazol-1-yl)butyl]-N-{[4-(trifluoromethyl)pyridin-2-yl]methyl}-1H-1,2,3-triazole-4-carboxamide]	0.1 to 0.5 µM	0.1 to 0.5 µM
O=C(NCc1cccc(C(F)(F)F)c1)c1cn(CCCCn2cc(C(=O)NCC3CCOCC3)nn2)nn1 [Example 120, N-(oxan-4-ylmethyl)-1-{4-[4-({[3-(trifluoromethyl)phenyl]methyl}carbamoyl)-1H-1,2,3-triazol-1-yl]butyl}-1H-1,2,3-triazole-4-carboxamide]	0.1 to 0.5 µM	0.5 to 5 µM
O=C(NCc1ccccn1)c1cn(CC(F)CCc2nnc(C(=O)NCc3cc(C(F)(F)F)ccn3)s2)nn1 (centres unmarked) [Example 234, 5-(3-fluoro-4-(4-((pyridin-2-ylmethyl)carbamoyl)-1H-1,2,3-triazol-1-yl)butyl)-N-((4-(trifluoromethyl)pyridin-2-yl)methyl)-1,3,4-thiadiazole-2-carboxamide]	< 0.1 µM	0.1 to 0.5 µM
CNC(=O)c1cn(CCCCc2ccc(NC(=O)Cc3cncc(-c4cccc(OC(F)(F)F)c4)c3)nn2)nn1 [Example 188, N-methyl-1-(4-(6-(2-(5-(3-(trifluoromethoxy)phenyl)pyridin-3-yl)acetamido)pyridazin-3-yl)butyl)-1H-1,2,3-triazole-4-carboxamide]	< 0.1 µM	< 0.1 µM
O=C(NCc1cc(C(F)(F)F)ccn1)c1cn(CCCCn2cc(C(=O)NC3CCCC3)nn2)nn1 [Example 104, 1-{4-[4-(cyclopentylcarbamoyl)-1H-1,2,3-triazol-1-yl]butyl}-N-{[4-(trifluoromethyl)pyridin-2-yl]methyl}-1H-1,2,3-triazole-4-carboxamide]	0.5 to 5 µM	0.5 to 5 µM
O=C(Cc1ccccn1)Nc1cn(CC(F)CCn2cc(C(=O)NCc3cc(C(F)(F)F)ccn3)nn2)nn1 (centres unmarked) [Example 399, 1-(3-fluoro-4-{4-[2-(pyridin-2-yl)acetamido]-1H-1,2,3-triazol-1-yl}butyl)-N-{[4-(trifluoromethyl)pyridin-2-yl]methyl}-1H-1,2,3-triazole-4-carboxamide]	< 0.1 µM	0.1 to 0.5 µM
CNC(=O)c1cn(CCCCc2ccc(NC(=O)CN3CCCCC3=O)nn2)nn1 [Example 214, N-methyl-1-(4-(6-(2-(2-oxopiperidin-1-yl)acetamido)pyridazin-3-yl)butyl)-1H-1,2,3-triazole-4-carboxamide]	0.1 to 0.5 µM	> 5 µM
O=C(NCc1cccc(C(F)(F)F)n1)c1cn(CCC(F)Cn2cc(C(=O)NCc3cc(C(F)(F)F)ccn3)nn2)nn1 (centres unmarked) [Example 474, 1-{2-fluoro-4-[4-({[6-(trifluoromethyl)pyridin-2-yl]methyl}carbamoyl)-1H-1,2,3-triazol-1-yl]butyl}-N-{[4-(trifluoromethyl)pyridin-2-yl]methyl}-1H-1,2,3-triazole-4-carboxamide]	< 0.1 µM	< 0.1 µM
O=C(Cc1cncs1)Nc1nnc(CCC(F)Cn2cc(C(=O)NCc3cc(OC(F)(F)F)ccc3F)nn2)s1 (centres unmarked) [Example 593, 1-(2-fluoro-4-(5-(2-(thiazol-5-yl)acetamido)-1,3,4-thiadiazol-2-yl)butyl)-N-(2-fluoro-5-(trifluoromethoxy)benzyl)-1H-1,2,3-triazole-4-carboxamide]	< 0.1 µM	< 0.1 µM
O=C(NCc1cccc(OC(F)(F)F)c1)c1cn(CCCCc2nnc(C(=O)NCc3cc(C(F)(F)F)ccn3)s2)nn1 [Example 75, 5-{4-[4-({[3-(trifluoromethoxy)phenyl]methyl}carbamoyl)-1H-1,2,3-triazol-1-yl]butyl}-N-{[4-(trifluoromethyl)pyridin-2-yl]methyl}-1,3,4-thiadiazole-2-carboxamide]	< 0.1 µM	< 0.1 µM
O=C(Cc1cc(OC(F)(F)F)ccc1F)Nc1cn(CC(F)CCn2cc(C(=O)NCc3ccc(C(F)(F)F)nc3)nn2)nn1 (centres unmarked) [Example 412, 1-[3-fluoro-4-(4-{2-[2-fluoro-5-(trifluoromethoxy)phenyl]acetamido}-1H-1,2,3-triazol-1-yl)butyl]-N-{[6-(trifluoromethyl)pyridin-3-yl]methyl}-1H-1,2,3-triazole-4-carboxamide]	< 0.1 µM	< 0.1 µM
O=C(Cc1cc(OC(F)(F)F)ccc1F)Nc1ccc(CCCCn2cc(C(=O)NCc3ccncc3)nn2)nn1 [Example 587, 1-(4-(6-(2-(2-fluoro-5-(trifluoromethoxy)phenyl)acetamido)pyridazin-3-yl)butyl)-N-(pyridin-4-ylmethyl)-1H-1,2,3-triazole-4-carboxamide]	< 0.1 µM	< 0.1 µM
CNC(=O)c1cn(CCCCc2ccc(NC(=O)CN3CCN(Cc4cccc(OC(F)(F)F)c4)CC3=O)nn2)nn1 [Example 247, N-methyl-1-(4-(6-(2-(2-oxo-4-(3-(trifluoromethoxy)benzyl)piperazin-1-yl)acetamido)pyridazin-3-yl)butyl)-1H-1,2,3-triazole-4-carboxamide]	< 0.1 µM	< 0.1 µM
